Experimental data taken from patent US12577217B2, “15-PGDH inhibitor” (KYORIN Pharmaceutical Co., Ltd., priority 2019, dated 2026).
pIC50: −log10 of the molar value.

Target: T1, recombinant human 15-PGDH (Homo sapiens, UniProt P15428)
T1 construct: purchased R&D Systems
T1 sequence (P15428 1-266): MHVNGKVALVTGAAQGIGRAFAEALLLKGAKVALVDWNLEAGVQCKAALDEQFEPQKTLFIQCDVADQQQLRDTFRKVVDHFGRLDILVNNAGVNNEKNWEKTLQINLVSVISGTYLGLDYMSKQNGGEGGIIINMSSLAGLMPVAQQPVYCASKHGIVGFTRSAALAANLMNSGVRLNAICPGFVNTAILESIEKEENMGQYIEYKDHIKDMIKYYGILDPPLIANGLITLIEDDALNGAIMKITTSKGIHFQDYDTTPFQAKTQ
Assay: 15-PGDH enzyme inhibition test
Type: biochemical
Details: 4 nM recombinant human 15-PGDH, 30 μM PGE2, 1 mM NAD+, 60 minutes after starting the reaction; read-out: IC50 Value
Procedure: 15-PGDH Enzyme Inhibition Test
A test compound and 4 nM recombinant human 15-PGDH (R&D Systems) were added, in 50 mM Tris-HCl (pH 8.0) containing 0.01% TWEEN 20 (Sigma) and 0.01% bovine gamma globulin (Sigma), to a 384-well Flat Bottom Black plate (Corning, 3820), and the resultant was allowed to stand still at room temperature for 12 minutes, and 30 μM PGE2 (Cayman Chemical) and 1 mM NAD+ (Sigma) were added thereto to start the reaction. 60 minutes after starting the reaction, measurement was performed using Synergy 2 (BioTeck) at an excitation wavelength of 340 nm and a fluorescence wavelength of 440 nm. Assuming that a fluorescence signal obtained with an assay buffer added instead of the test compound and NAD+ was 100% and that a signal obtained with NAD+ added was 0%, a concentration corresponding to 50% inhibition plotted on a concentration-reaction curve of the test compound was defined as an IC50 value. Incidentally, in the following tables, an IC50 value smaller than 10 nM was shown as +++, an IC50 value equal to or larger than 10 nM and smaller than 100 nM was shown as ++, and an IC50 value equal to or larger than 100 nM was shown as +.

Compound | pIC50
COc1ccc(CN2Cc3cc(N4CCOc5cc(C(=O)N6CCC(F)(F)CC6)ccc54)ccc3C2=O)c(OC)c1 [Example 1-150] | > 8.00
CN1Cc2cc(N3CCOc4cc(C(=O)N5CCC(F)(F)CC5)ccc43)ncc2C1=O [Example 1-151] | > 8.00
O=C(c1ccc2c(c1)OCCN2c1ccc2c(=O)[nH]cnc2c1)N1CCC(F)(F)CC1 [Example 1-152] | > 8.00
Cn1cnc2cc(N3CCOc4cc(C(=O)N5CCC(F)(F)CC5)ccc43)ccc2c1=O [Example 1-153] | > 8.00
COCn1nc2cc(N3CCOc4cc(C(=O)N5CCC(F)(F)CC5)ccc43)ccn2c1=O [Example 1-154] | > 8.00
O=C(c1cnc2c(c1)CCCN2c1ccc2c(=O)[nH]cnc2c1)N1CCCCC1 [Example 1-155] | > 8.00
N#Cc1ccc(N2CCOc3cc(C(=O)N4CCCCC4)ccc32)cc1 [Example 1-157] | > 8.00
CS(=O)(=O)NCc1ccc(N2CCOc3cc(C(=O)N4CCCCC4)ccc32)cc1 [Example 1-160] | > 8.00
CS(=O)(=O)CCc1ccc(N2CCOc3cc(C(=O)N4CCCCC4)ccc32)cc1 [Example 1-161] | > 8.00
CS(=O)(=O)Cc1ccc(N2CCOc3cc(C(=O)N4CCCCC4)ccc32)cc1 [Example 1-162] | > 8.00
Cn1cnc2cc(N3CCOc4cc(C(=O)N5CCCCC5)cnc43)ccc2c1=O [Example 1-163] | > 8.00
CN1C(=O)c2cc(N3CCOc4cc(C(=O)N5CCCCC5)cnc43)ccc2S1(=O)=O [Example 1-164] | 7.00 to 8.00
CN1C(=O)c2ccc(N3CCOc4cc(C(=O)N5CCCCC5)cnc43)cc2S1(=O)=O [Example 1-165] | > 8.00
CN1C(=O)c2ccc(N3CCOc4cc(C(=O)N5CCCCC5)cnc43)cc2C1=O [Example 1-166] | > 8.00
O=C(c1cnc2c(c1)OCCN2c1ccc2c(c1)C(C1CC1)=NS2(=O)=O)N1CCCCC1 [Example 1-167] | 7.00 to 8.00
O=C(c1cnc2c(c1)CCCN2c1cc2c(cn1)C(=O)N(CC1COC1)C2)N1CCCCC1 [Example 1-168] | 7.00 to 8.00
CCN1Cc2cc(N3CCCc4cc(C(=O)N5CCCCC5)cnc43)ccc2C1=O [Example 1-169] | > 8.00
O=C(c1cnc2c(c1)CCCN2c1ccn2c(=O)[nH]nc2c1)N1CCCCC1 [Example 1-171] | > 8.00
COCN1Cc2cc(N3CCCc4cc(C(=O)N5CCCCC5)cnc43)ccc2C1=O [Example 1-172] | > 8.00
O=C(c1cnc2c(c1)CCCN2c1ccc2c(=O)[nH]ccc2c1)N1CCCCC1 [Example 1-173] | > 8.00
Cn1ccc2cc(N3CCCc4cc(C(=O)N5CCCCC5)cnc43)ccc2c1=O [Example 1-174] | > 8.00
CNC(=O)c1ccc(N2CCCc3cc(C(=O)N4CCC(F)(F)CC4)cnc32)cc1F [Example 1-175] | > 8.00
COCCNC(=O)c1ccc(N2CCCc3cc(C(=O)N4CCC(F)(F)CC4)cnc32)cc1F [Example 1-176] | > 8.00
O=C(c1cnc2c(c1)CCCN2c1ccc2c(c1)CN(CC1COC1)C2=O)N1CCC(F)(F)CC1 [Example 1-177] | > 8.00
O=C(c1cnc2c(c1)CCCN2c1ccc2c(c1)CN(C1COC1)C2=O)N1CCC(F)(F)CC1 [Example 1-178] | > 8.00
CNC(=O)c1ncc(N2CCCc3cc(C(=O)N4CCC(F)(F)CC4)cnc32)cc1F [Example 1-180] | > 8.00
O=C(c1cnc2c(c1)CCCN2c1ccc2c(=O)[nH]ccc2c1)N1CCC(F)(F)CC1 [Example 1-181] | > 8.00
Cn1ccc2cc(N3CCCc4cc(C(=O)N5CCC(F)(F)CC5)cnc43)ccc2c1=O [Example 1-182] | > 8.00

Further lines, results first:

pIC50 | Compound
7.00 to 8.00 | O=C(c1cnc2c(c1)CCCN2c1cc2c(cn1)C(=O)N(C1COC1)C2)N1CCC(F)(F)CC1 [Example 1-183]
> 8.00 | O=C(c1cnc2c(c1)CCCN2c1ccn2c(=O)[nH]nc2c1)N1CCC(F)(F)CC1 [Example 1-184]
7.00 to 8.00 | CCOCCN1Cc2cc(N3CCCc4cc(C(=O)N5CCC(F)(F)CC5)cnc43)ncc2C1=O [Example 1-185]
7.00 to 8.00 | O=C(c1cnc2c(c1)CCCN2c1cc2c(cn1)C(=O)N(CC1COC1)C2)N1CCC(F)(F)CC1 [Example 1-186]
> 8.00 | Cn1ncc2cc(N3CCCc4cc(C(=O)N5CCCCC5)cnc43)ccc2c1=O [Example 1-188]
> 8.00 | Cn1ncc2cc(N3CCCc4cc(C(=O)N5CCC(F)(F)CC5)cnc43)ccc2c1=O [Example 1-189]
> 8.00 | Cn1cnc2cc(N3CCCc4cc(C(=O)N5CCCCC5)cnc43)cnc2c1=O [Example 1-190]
> 8.00 | Cn1cnc2cc(N3CCCc4cc(C(=O)N5CCC(F)(F)CC5)cnc43)cnc2c1=O [Example 1-191]
> 8.00 | O=C(c1cnc2c(c1)CCCN2c1cnc2c(=O)[nH]cnc2c1)N1CCC(F)(F)CC1 [Example 1-192]
> 8.00 | Cn1ncc2cc(N3CCCc4cc(C(=O)N5CCCCC5)cnc43)cnc2c1=O [Example 1-194]
> 8.00 | O=C(c1cnc2c(c1)CCCN2c1cnc2c(=O)[nH]ncc2c1)N1CCCCC1 [Example 1-195]
> 8.00 | CCCN1Cc2cc(N3CCCc4cc(C(=O)N5CCCCC5)cnc43)ccc2C1=O [Example 1-196]
> 8.00 | CCCCN1Cc2cc(N3CCCc4cc(C(=O)N5CCCCC5)cnc43)ccc2C1=O [Example 1-197]
> 8.00 | O=C(c1cnc2c(c1)CCCN2c1ccc2c(c1)CN(C1CC1)C2=O)N1CCCCC1 [Example 1-198]
7.00 to 8.00 | O=C(c1cnc2c(c1)CCCN2c1ccccc1)N1CCCCC1 [Example 1-199]
7.00 to 8.00 | COc1ccc(N2CCCc3cc(C(=O)N4CCCCC4)cnc32)cc1 [Example 1-200]

pIC50 | Compound
> 8.00 | Cn1nnc(-c2ccc(N3CCCc4cc(C(=O)N5CCCCC5)cnc43)cc2)n1 [Example 1-201]
> 8.00 | CCCn1nc2cc(N3CCCc4cc(C(=O)N5CCCCC5)cnc43)ccn2c1=O [Example 1-202]
> 8.00 | CCCCn1nc2cc(N3CCCc4cc(C(=O)N5CCCCC5)cnc43)ccn2c1=O [Example 1-203]
> 8.00 | CNC(=O)c1ccc(N2CCCc3cc(C(=O)N4CCCCC4)cnc32)cc1 [Example 1-204]
> 8.00 | COC(=O)c1ccc(N2CCCc3cc(C(=O)N4CCCCC4)cnc32)cc1 [Example 1-205]
7.00 to 8.00 | CNC(=O)c1ccc(N2CCCc3cc(C(=O)N4CCCCC4)cnc32)cc1C [Example 1-207]
> 8.00 | N#Cc1ccc(N2CCCc3cc(C(=O)N4CCCCC4)cnc32)cc1 [Example 1-209]
> 8.00 | CNC(=O)c1ccc(N2CCCc3cc(C(=O)N4CCCCC4)cnc32)cn1 [Example 1-210]
7.00 to 8.00 | O=C(c1cnc2c(c1)CCCN2c1ccc(Cl)cc1)N1CCCCC1 [Example 1-211]
7.00 to 8.00 | O=C(O)c1ccccc1N1CCCc2cc(C(=O)N3CCCCC3)cnc21 [Example 1-212]
> 8.00 | O=C(c1cnc2c(c1)CCCN2c1ccc2c(c1)CN(C1CC1)C2=O)N1CCC(F)(F)CC1 [Example 1-213]
7.00 to 8.00 | O=C(c1cnc2c(c1)CCCN2c1ccc(F)cc1)N1CCCCC1 [Example 1-214]
> 8.00 | CCCn1nc2cc(N3CCOc4cc(C(=O)N5CCCCC5)cnc43)ccn2c1=O [Example 1-215]
> 8.00 | CCCCn1nc2cc(N3CCOc4cc(C(=O)N5CCCCC5)cnc43)ccn2c1=O [Example 1-216]
> 8.00 | Cn1ccc2cc(N3CCOc4cc(C(=O)N5CCCCC5)cnc43)ccc2c1=O [Example 1-217]
